Measured values: article PMC7822874, “Chemoprotective antimalarials identified through quantitative high-throughput screening of Plasmodium blood and liver stage parasites” (Scientific Reports, 2021)
Like-named read-outs stand apart in the source and are kept apart here.

How the values were obtained:
Format in all cases: cell-based, Plasmodium falciparum
Conditions in all cases: Plasmodium falciparum
[1] = system: P. falciparum Dd2 Cytb G131S; test: SYBR Green ABS proliferation assay, NCGC00374598 selected clone C11
Procedure, shortened: (§1)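 72 h SYBR Green-I read; % response = relative growth vs controls. Clones from resistance selection, cloned by limiting dilution; 37 °C, 5% CO2/5% O2/90% N2.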

[2] = system: P. falciparum Dd2 Cytb V259L; test: SYBR Green ABS proliferation assay, NCGC00473217 selected clone F06
Procedure, shortened: as §1

[3] = system: P. falciparum Dd2 Cytb F123L; test: SYBR Green ABS proliferation assay, NCGC00473217 selected clone G08
Method: (§2) As resistance selection studies implicated the parasite cytochrome bc1 complex in mediating reduced parasite susceptibility to both NCGC00473217 and NCGC00374598, we leveraged these drug-selected parasites to test for altered drug response to a panel of antimalarial compounds.
(§3) The P. falciparum parasite Dd2 line was cultured in vitro using standard conditions. […] Tissue culture flasks and assay plates were incubated at 37 °C under a gas mixture of 5% CO2, 5% O2 and 90% N2. […] Significant differences were assessed using two-sided Student’s t-tests. All HTS assays were stopped and read at 72 h. Percent response values represent relative growth as judged by SYBR Green-I fluorescence intensity values normalized to controls.
(§4) Fresh uninfected RBCs (0.5% hematocrit) were added on day 7 and media was changed every other day. […] Resistant parasites were maintained under drug media at a volume of 50 mL until a high parasitemia (> 5%) was achieved. Aliquots of the bulk resistant cultures were frozen in cryovials before cloning by limiting dilution in 96-well plates (seeded at 0.25 or 0.5 parasites/well)[70]. After 3 weeks of cloning, we screened for positive wells by flow cytometry with SYBR Green-stained cells. […] Parasites were harvested by saponin lysis at the trophozoite stage and genomic DNA was extracted using the QIAamp DNA Blood Midi Kit (Qiagen, Germantown, MD)[71].

[4] = system: P. falciparum Dd2 Cytb A122D; test: SYBR Green ABS proliferation assay, NCGC00473217 selected clone F12
Method: as §2, §3, §4

[5] = DD2, cytochrome b mutant line, second value triple, c6, […], read-out: log AC50, mean (converted)
[6] = DD2, cytochrome b mutant line, third value triple, c9, […], read-out: log AC50, mean (converted)
[7] = DD2, cytochrome b mutant line, fifth value triple, c15, […], read-out: log AC50, mean (converted)
[8] = DD2, cytochrome b mutant line, fourth value triple, c12, […], read-out: log AC50, mean (converted)
[9] = DD2, […], averaged from three independent replicates, top concentration 29 µM, read-out: Average AC50 (Log[M]), NCGC00374598 clone C11 (Cytb G131S) (converted)
[10] = DD2, […], averaged from three independent replicates, top concentration 29 µM, read-out: Average AC50 (Log[M]), NCGC00473217 clone F06 (Cytb V259L) (converted)
[11] = DD2, […], averaged from three independent replicates, top concentration 29 µM, read-out: Average AC50 (Log[M]), NCGC00473217 clone G08 (Cytb F123L) (converted)
[12] = DD2, […], averaged from three independent replicates, top concentration 29 µM, read-out: Average AC50 (Log[M]), NCGC00473217 clone F12 (Cytb A122D) (converted)

What does the source list for `CCCN1C(CC(C)C)=N[S+](=O)([O-])c2cc(NC(=O)c3ccccc3C(F)(F)F)ccc21` [NCGC00531765-01]?
AC50 [1, 5]: 7.67e-06 M; AC50 [2, 6]: 7.52e-06 M; AC50 [3, 7]: 1.17e-05 M; AC50 [4, 8]: 1.17e-05 M

Which results are given for `CCCN1C(CC(C)C)=N[S+](=O)([O-])c2cc(NC(=O)c3cccc(OC)c3)ccc21` [NCGC00531773-01]?
AC50 [1, 5]: 3.56e-06 M; AC50 [2, 6]: 7.67e-06 M; AC50 [3, 7]: 1.06e-05 M; AC50 [4, 8]: 1e-05 M

How did the AC50 [1, 5] turn out when `O=c1[nH]c(N2CCOCC2)nc2c1CCN(Cc1ccc(C(F)(F)F)cc1)CC2` [NCGC00440629-01] was run?
The AC50 was 6.43e-06 M.

What about the AC50 [2, 6] of the same compound?
Its AC50 is 1.5e-05 M.

What about the AC50 [3, 7] of the same compound?
Its AC50 is 1.88e-06 M.

And the AC50 [4, 8]?
The AC50 was 9.08e-06 M.

With `CCCN1C(CC2CCCCC2)=N[S+](=O)([O-])c2cc(NC(=O)c3cccs3)ccc21` [NCGC00532404-01] as the compound, how does the AC50 [1, 5] read?
Its AC50 is 9.66e-07 M.

What about the AC50 [2, 6] of the same compound?
The AC50 was 1.5e-06 M.

And the AC50 [3, 7]?
The AC50 was 3.99e-06 M.

What about the AC50 [4, 8] of the same compound?
Its AC50 is 1.53e-06 M.

How did the AC50 [1, 5] turn out when `COc1ccc(-c2nc(C(C)C)nc3c2CCN(C(=O)Cc2ccc(F)cc2)CC3)cc1` [NCGC00479517-01] was run?
The AC50 was 1.5e-05 M.

And the AC50 [2, 6]?
The AC50 was 1.88e-05 M.

And the AC50 [3, 7]?
Its AC50 is 1.06e-05 M.

What about the AC50 [4, 8] of the same compound?
The AC50 was 1.68e-05 M.

Which results are given for `CCCN1C(CC(C)C)=N[S+](=O)([O-])c2cc(NC(=O)Nc3cccs3)ccc21` [NCGC00537523-01]?
AC50 [1, 5]: 2.67e-06 M; AC50 [2, 6]: 5.22e-06 M; AC50 [3, 7]: 9.66e-06 M; AC50 [4, 8]: 9.29e-06 M

`COc1ccc(-c2nc(C(C)C)nc3c2CCN(S(=O)(=O)c2cccc(C(F)(F)F)c2)CC3)cc1` [NCGC00479522-01] was tested. Which AC50 [1, 5] did it give?
Its AC50 is 1.1e-05 M.

And the AC50 [2, 6]?
Its AC50 is 1.28e-05 M.

And the AC50 [3, 7]?
Its AC50 is 1.14e-05 M.

What about the AC50 [4, 8] of the same compound?
Its AC50 is 1.68e-05 M.

Which results are given for `COc1ccc(-c2nc(C(C)C)nc3c2CCN(C(=O)Cc2cccc(Cl)c2)CC3)cc1` [NCGC00479508-01]?
AC50 [1, 5]: 1.33e-05 M; AC50 [2, 6]: 1.74e-05 M; AC50 [3, 7]: 1.28e-05 M; AC50 [4, 8]: 1.44e-05 M

What does the source list for `CC(C)c1nc2c(c(-c3ccc(O)cc3)n1)CCN(C(=O)c1cccc(Cl)c1)CC2` [NCGC00480331-01]?
AC50 [1, 5]: 1.74e-05 M; AC50 [2, 6]: 1.81e-05 M; AC50 [3, 7]: 1.19e-05 M; AC50 [4, 8]: 1.68e-05 M

How did the AC50 [1, 5] turn out when `O=C(c1cccc(Cl)c1)N1CCc2nc(C3CC3)nc(-c3ccc(O)cc3)c2CC1` [NCGC00480367-01] was run?
The AC50 was 1.06e-05 M.

What about the AC50 [2, 6] of the same compound?
Its AC50 is 2.66e-06 M.

And the AC50 [3, 7]?
The AC50 was 1.28e-06 M.

What about the AC50 [4, 8] of the same compound?
Its AC50 is 1.55e-05 M.

Which AC50 [1, 5] does the source give for `COc1ccc(CN2CCc3nc(C(C)C)nc(-c4ccc(O)cc4)c3CC2)cc1` [NCGC00480318-01] here?
Its AC50 is 5.11e-06 M.

What about the AC50 [2, 6] of the same compound?
The AC50 was 9.08e-06 M.

What about the AC50 [3, 7] of the same compound?
Its AC50 is 9.08e-06 M.

And the AC50 [4, 8]?
The AC50 was 7.78e-06 M.

Which AC50 [1, 5] does the source give for `CCCN1C(CC(C)C)=N[S+](=O)([O-])c2cc(NC(=O)c3ccc(Cl)cc3)ccc21` [NCGC00531775-01] here?
The AC50 was 2e-07 M.

What about the AC50 [2, 6] of the same compound?
The AC50 was 6.32e-07 M.

And the AC50 [3, 7]?
Its AC50 is 3.17e-06 M.

What about the AC50 [4, 8] of the same compound?
The AC50 was 2.24e-07 M.

With `CCCN1C(CC(C)C)=N[S+](=O)([O-])c2cc(NCc3ccccc3)ccc21` [NCGC00531800-01] as the compound, how does the AC50 [1, 5] read?
The AC50 was 1e-05 M.

What about the AC50 [2, 6] of the same compound?
Its AC50 is 1.12e-05 M.

And the AC50 [3, 7]?
The AC50 was 1.42e-05 M.

And the AC50 [4, 8]?
Its AC50 is 9.46e-06 M.

How did the AC50 [1, 9] turn out when `N[S+](=O)([O-])c1cc2c(cc1C(F)(F)F)NCN[S+]2(=O)[O-]` [NCGC00016401-08] was run?
The AC50 was 2.24e-05 M.

And the AC50 [2, 10]?
The AC50 was 3.85e-06 M.

And the AC50 [3, 11]?
The AC50 was 3.56e-06 M.

And the AC50 [4, 12]?
The AC50 was 3.56e-06 M.

How did the AC50 [1, 5] turn out when `CCCN1C(CC(C)C)=N[S+](=O)([O-])c2cc(NC(=O)c3ccc(F)c(Cl)c3)ccc21` [NCGC00531769-01] was run?
Its AC50 is 2.82e-06 M.

And the AC50 [2, 6]?
The AC50 was 3.7e-06 M.

What about the AC50 [3, 7] of the same compound?
Its AC50 is 3.99e-07 M.

And the AC50 [4, 8]?
Its AC50 is 7.38e-06 M.

With `COc1ccc(CN2CCc3nc(C4CC4)nc(-c4ccc(O)cc4)c3CC2)cc1` [NCGC00480355-01] as the compound, how does the AC50 [1, 5] read?
Its AC50 is 1.06e-05 M.

What about the AC50 [2, 6] of the same compound?
The AC50 was 1.61e-05 M.

And the AC50 [3, 7]?
Its AC50 is 1.23e-05 M.

And the AC50 [4, 8]?
Its AC50 is 1.19e-05 M.

Which AC50 [1, 5] does the source give for `Cc1ccccc1C(=O)N1CCc2nc(C3CC3)nc(-c3ccc(O)cc3)c2CC1` [NCGC00480365-01] here?
The AC50 was 1.38e-05 M.

And the AC50 [2, 6]?
The AC50 was 1.28e-05 M.

And the AC50 [3, 7]?
The AC50 was 1.38e-05 M.

And the AC50 [4, 8]?
The AC50 was 1.81e-05 M.

How did the AC50 [1, 9] turn out when `CCCN1C(CC(C)C)=N[S+](=O)([O-])c2cc(NC(C)=O)ccc21` [NCGC00521093-01] was run?
Its AC50 is 2e-05 M.

And the AC50 [2, 10]?
Its AC50 is 8.93e-06 M.

What about the AC50 [3, 11] of the same compound?
The AC50 was 7.96e-06 M.

And the AC50 [4, 12]?
Its AC50 is 1.04e-05 M.

For `CCCN1C(CC(C)C)=N[S+](=O)([O-])c2cc(N(Cc3cccs3)Cc3cccs3)ccc21` [NCGC00531812-01], which AC50 [1, 5] is on record?
Its AC50 is 6.32e-06 M.

And the AC50 [2, 6]?
Its AC50 is 3.56e-06 M.

What about the AC50 [3, 7] of the same compound?
Its AC50 is 4.66e-06 M.

And the AC50 [4, 8]?
Its AC50 is 3.99e-06 M.
